Reference: patent publication US4481203A, “Composition containing 1-(n-hexylcarbamoyl)-5-fluorouracil and uracil” (priority 1977, dated 1984)
Like-named read-outs stand apart in the source and are kept apart here.

Legend:
in vivo [1] = format: in vivo; details: mouse, in vivo, po, mice
Procedure: (§1) (5) The anti-cancer compositions of this invention are tested in mice by the following methods to determine acute toxicity, therapeutic effect and theapeutic index.
(§2) Male mice of ICR strain weighing 22±1 g are used, 5 mice in each group. […] Over the following period of three weeks the mice are checked every day for poisoning, body weight and mortality. The LD50 is determined according to the up-and-down method 3 weeks after the administration.

AH-130 [2] = experiment: Effects of Preparations 1 to 8 on AH-130 (Table 4); format: in vivo, male Donryu rats
Text: (§3) Ascites cells (5×10^6) of AH-130, are subcutaneously transplanted in the armpit of male Donryu rats weighing about 200 g (ten rats in each group). […] Twenty-four hours after the transplantation and during the following seven consecutive days the suspension is orally given to the animal once every day at the dose listed in Table 2. On the 10th day after the transplantation, the tumor is removed from the body and weighed to calculate the average weight (T) of the tumors in the group to which the composition has been given and the corresponding weight (C) in the control group to determine the ratio T/C.
(4) Compositions formulated according to Preparations 1 to 8 given above are tested by the foregoing method for effects on AH-130.

sarcoma 180 [3] = experiment: Therapeutic effect on sarcoma 180 transplanted in mice (Table 5); format: in vivo, male mice of ICR strain; details: oral, 14400 min
Procedure: as §1
Tissues of sarcoma 180, 2×10^6, are subcutaneously transplanted in the back of male mice of ICR strain (6 mice in each group). […] Twenty-four hours after the transplantation and during the following seven consecutive days the suspension is orally given to the animal once every day.

AH-130 [4] = experiment: Anti-cancer effect (T/C) on subcutaneously transplanted AH-130, oral administration (Table 2); format: in vivo, male Donryu rats
Text: (2) Determination of effects
as §3

[5] = background; cited from earlier work
mice = experiment: in vivo; format: in vivo; details: oral, 30240 min
Procedure: as §1, §2

in vivo [6] = experiment: in vivo; parameters: species or system male rats of Donryu strain; details: rat, po, Concentration of 5-fluorouracil in blood
Text: Ascites cells (5×10^6) of AH-130 are subcutaneously transplanted in the armpit portion of male rats of Donryu strain weighing about 200 g. Seven days thereafter, the rats with cancer cells weighing at least 2 g are used, five rats in each group.
Two, four and eight hours after the administration, the blood serum and cancer tissue homogenate are collected, each of which is acidified with hydrochloric acid and extracted with chloroform. The resulting aqueous layer is examined for antibiotic activity according to the thin-cup method (Media Circle, Vol. 92, p. 259, 1967) with use of Staphylococcus aureus 209P strain.

sarcoma 180 [7] = experiment: Therapeutic index (LD50/ED50) in mice (Table 5); format: in vivo, male mice of ICR strain; details: oral
Text: The LD50 and ED50 values obtained above are used to determine the therapeutic index (LD50 /ED50).

[8] = uracil (b)/(a) mol ratio 0, as amount of 5-fluorouracil (a)
[9] = uracil (b)/(a) mol ratio 2.5, as amount of 5-fluorouracil (a)
[10] = uracil (b)/(a) mol ratio 10, as amount of 5-fluorouracil (a)
[11] = Rattus norvegicus, po, 240 h; read-out: Anti-cancer effect (T/C)
[12] = oral, 5-fluorouracil (a) 0.5 m.mol/kg + uracil 0.2 m.mol/kg
[13] = oral, 5-fluorouracil (a) 0.5 m.mol/kg + uracil 0.5 m.mol/kg
[14] = oral, 5-fluorouracil (a) 0.5 m.mol/kg + uracil 1 m.mol/kg
[15] = Rattus norvegicus, po, 240 h, read-out: Anti-cancer effect (T/C)
[16] = oral, 5-fluorouracil (a) 0.5 m.mol/kg + uracil 0.1 m.mol/kg

SMILES	LD50 at 504 h (in vivo [1]; [8]) [mg/kg]	LD50 at 504 h (in vivo [1]; [9]) [mg/kg]	LD50 at 504 h (in vivo [1]; [10]) [mg/kg]	ED50 (sarcoma 180 [3]; [9]) [mg/kg]	ED50 (sarcoma 180 [3]; [10]) [mg/kg]	response vs control in vivo at 500 µmol/kg (AH-130 [4]; [11]) [%]	Anti-cancer effect (T/C) (AH-130 [4]; [12])	Anti-cancer effect (T/C) (AH-130 [4]; [13])	Anti-cancer effect (T/C) (AH-130 [4]; [14])	ED50 (sarcoma 180 [3]; [8]) [mg/kg]	Therapeutic index (LD50/ED50) (sarcoma 180 [7]; uracil (b)/(a) mol ratio 0)	Therapeutic index (LD50/ED50) (sarcoma 180 [7]; uracil (b)/(a) mol ratio 2.5)	Therapeutic index (LD50/ED50) (sarcoma 180 [7]; uracil (b)/(a) mol ratio 10)	also measured
CCOCn1cc(F)c(=O)[nH]c1=O [Compound 5, 1-Ethoxymethyl-5-fluorouracil]	1000	446	191	26	13	68	0.33	0.19	0.08					Anti-cancer effect (control) (T/C) (AH-130 [2]; oral, Compd. 5 100 mg/kg, formulated as Preparation 5 but no uracil): 0.72
O=c1[nH]cc(F)c(=O)[nH]1 [Compound 1, 5-Fluorouracil]			97	8.5	6.0					18.5				toxicity and side effects [5]: high toxicity and marked side effects; LD50 (mice; [8]): 115 mg/kg; LD50 (mice; [9]): 115 mg/kg; concentration at 4 h (in vivo [6]): 20 ng/mL; Anti-cancer effect (control) (T/C) (AH-130 [2]; I.v., Compd. 1 10 mg/kg, formulated as Preparation 6 but no uracil): 0.66; response vs control in vivo at 80 µmol/kg (AH-130 [4]; [15]): 69%; Anti-cancer effect (T/C) (AH-130 [4]; oral, 5-fluorouracil (a) 0.08 m.mol/kg + uracil 0.08 m.mol/kg): 0.59; Anti-cancer effect (T/C) (AH-130 [4]; oral, 5-fluorouracil (a) 0.08 m.mol/kg + uracil 0.16 m.mol/kg): 0.32
O=c1cc[nH]c(=O)[nH]1 [uracil (b), uracil]														effect (T/C) (AH-130 [4]; oral, uracil (b) alone 1 m.mol/kg): 0.96; anti-cancer effect of uracil itself (AH-130 [4]; uracil (b) itself): no anti-cancer effect whatever
O=c1[nH]c(=O)n(S(=O)(=O)c2ccccc2)cc1F [Compound 8, 1-Benzenesulfonyl-5-fluorouracil]	1170	973	427	88	48	48		0.21		234				Anti-cancer effect (T/C) (AH-130 [4]; [16]): 0.39
O=c1[nH]cc(F)c(=O)n1C1CCCO1 (stereo not shown) [Compound 7, 3-(2-Tetrahydrofuryl)-5-fluorouracil]	1020	687	381	29	16	20		0.06		78	13.1	23.7	23.8	Anti-cancer effect (T/C) (AH-130 [4]; [16]): 0.12
O=c1[nH]c(=O)n(C2CCCO2)cc1F (stereo not shown) [Compound 2, 1-(2-Tetrahydrofuryl)-5-fluorouracil, reference compound]				20	11	65	0.23	0.17	0.06	140				Anti-cancer effect (control) (T/C) (AH-130 [2]; I.v., Compd. 2 100 mg/kg, formulated as Preparation 7 but no uracil): 0.61; Anti-cancer effect (control) (T/C) (AH-130 [2]; oral, Compd. 2 100 mg/kg, formulated as Preparation 1 but no uracil): 0.68; Anti-cancer effect (control) (T/C) (AH-130 [2]; via anus, Compd. 2 100 mg/kg, formulated as Preparation 8 but no uracil): 0.51; Anti-cancer effect (T/C) (AH-130 [4]; oral, 5-fluorouracil (a) 0.5 m.mol/kg + uracil 0.05 m.mol/kg): 0.49; Anti-cancer effect (T/C) (AH-130 [4]; [16]): 0.30
CCCCCCNC(=O)n1cc(F)c(=O)[nH]c1=O [Compound 4, 1-(n-Hexylcarbamoyl)-5-fluorouracil]	1260	980	644	24	20		0.21	0.15	0.12	60	21.0	40.8	32.2	Anti-cancer effect (control) (T/C) (AH-130 [2]; oral, Compd. 4 50 mg/kg, formulated as Preparation 3 but no uracil): 0.45; response vs control in vivo at 500 µmol/kg (AH-130 [4]; [15]): 39%
Fc1cnc(OCc2ccccc2)nc1OCc1ccccc1 [Compound 12, 2,4-Dibenzyl-5-fluorouracil]				224	163	55		0.41		362				
CCOC(=O)n1cc(F)c(=O)[nH]c1=O [Compound 9, 1-Ethoxycarbonyl-5-fluorouracil]	332	269	179	39	28			0.06		101	3.3	6.9	6.4	response vs control in vivo at 500 µmol/kg (AH-130 [4]; [15]): 22%
O=c1c(F)cn(C2CCCO2)c(=O)n1C1CCCO1 (stereo not shown) [Compound 3, 1,3-bis(2-Tetrahydrofuryl)-5-fluorouracil]	2220	1890	1160	63	27	24	0.18	0.12	0.08	118	18.8	30.1	42.9	Anti-cancer effect (control) (T/C) (AH-130 [2]; oral, Compd. 3 120 mg/kg, formulated as Preparation 2 but no uracil): 0.25; Anti-cancer effect (control) (T/C) (AH-130 [2]; oral, Compd. 3 120 mg/kg, formulated as Preparation 4 but no uracil): 0.25
CCCC(=O)n1cc(F)c(=O)[nH]c1=O [Compound 10, 1-(n-Butyryl)-5-fluorouracil]				37	28	38		0.11		111				
CCCCn1cc(F)c(=O)[nH]c1=O [Compound 11, 1-(n-Butyl)-5-fluorouracil]	867	723	358	88	49	77		0.53		186	4.7	8.2	7.3	
